Laboratory results published in patent US10772928B2, “Modulation and detection of a neuronal alternative splicing regulatory network for treatment and diagnosis of neurological disorders” (The Governing Council of the University of Toronto, priority 2014, dated 2020).
Entries after “also recorded” stand apart in the source; their conditions may differ. Blank lines part the entries; values can stand above or below the compound they belong to. Peptide text beside a SMILES is read from it. * marks the point of attachment. Cbz = O=C(OCc1ccccc1)*

Tests used:
[1] = tested on: hippocampal mouse neurons; experiment: RNA-Seq analysis of alternative splicing events after KCl depolarization of cultured hippocampal neurons (Table 3); type: cell-based; details: for number of alternative splicing events displaying changes: change of at least 15
Protocol: A) Number of alternative splicing events with PSI, percent intron retention (PIR) or percent splice site usage (PSU) changes of at least 15, 30 minutes and 3 hours after neuronal depolarization. B) Microexons and cassette exons are preferentially skipped following neuronal depolarization, whereas retained introns show no directionality. C) Gene ontology analysis of microexons and cassettes exons with ΔPSI≥15 during neuronal depolarization.
A systematic analysis of alternative splicing events modulated by neuronal activity, including microexons, longer cassette exons, retained introns and alternative 5′ and 3′ splice sites was first performed. Cultured wild-type hippocampal mouse neurons were depolarized using KCl treatment for thirty minutes or three hours and RNA-Seq analysis was performed on these samples. […] Among the additional alternative splicing events affected by neuronal depolarization were 887 (of 10830 detected alternative cassette exons>27 nt; 8.1%) alternative cassette exons and 672 retained introns. Longer alternative cassette exons were also primarily skipped in depolarized neurons (747/887; 84.2%) (FIG. 42B). Genes harboring depolarization-dependent alternative cassette exons have functions related to signal transduction and transcription regulation whereas those with microexons relate primarily to vesicle transport (FIG. 42C).

nSR100 [2] = experiment: nSR100 protein (western blot) and mRNA (qRT-PCR) levels in KCl-depolarized DIV11 cortical neurons; type: cell-based, mouse
Excerpt: A) Overlap between microexons that are skipped in humans with ASD (upper set), skipped upon neuronal depolarization (lower left set) and nSR100-regulated microexons (lower right set). B) Microexons were plotted based on their PSI difference between depolarized and resting wild-type neurons (X-axis), and between nSR100^Δ7-8/Δ7-8 and nSR100^+/+ mice (Y-axis). C) Cumulative distribution plots indicating the position of the first UGC motif within 200 nt upstream of neuronal activity-regulated microexons (dashed curve) or longer cassette exons (thick solid curve) vs. non-neural alternative cassette exons (light solid curve). The number of exons used to analyze each subgroup is shown in parentheses. D) Western blot on KCl-treated DIV11 cortical neurons (left panel) and quantification of nSR100 protein level (right panel). E) RT-PCR showing increased intron retention and microexon inclusion in nSR100 transcripts early after depolarization of DIV11 cortical neurons. […] G) Representative RT-PCRs on nuclear and cytosolic fractions (left panel) to assess localization of nSR100 transcripts in three replicates of cultured DIV4 cortical neurons with qRT-PCR quantification of the abundance of nSR100 isoforms harboring the retained intron, normalized to GAPDH levels in the correspondent cell fractions from six replicates (right panel). […]

nSR100 [3] = experiment: nSR100 protein levels by western blot in dox-inducible, nSR100-expressing 293T cells; type: cell-based, human; details: versus DMSO or control siRNAs
Excerpt: Tubulin detection was used as loading control.
RT-PCR assays were used to confirm FBXW11 knockdown. nSR100 protein levels were monitored using a western blot. Tubulin and 1-actin detection was used to control for loading.
By applying affinity purification coupled to mass-spectrometry (AP-MS), several interaction nSR100 partner proteins were detected that provide insight into mechanisms of post-translational regulation of nSR100 levels. For example, AP-MS experiments identified the F-box protein FBXW11 (also known as 1TRCP2) as an nSR100 interaction partner. The Skp-Cullin-F-box (SCF) complex is a multi-protein complex that regulates cellular protein levels via ubiquitin-mediated proteolysis. FBXW11 is an E3 ubiquitin ligase that confers specificity to the SCF complex by recognizing a particular phosphodegron on targets. In addition, Skp1, which is required for recognizing and binding FBXW11, was also detected in nSR100 AP-MS experiments. Phosphorylation of consensus binding sites for F-box proteins, including FBXW11, is typically required for targeting of proteins for degradation by the proteosomal pathway. The set of nSR100 interaction partners identified by AP-MS included several kinases such as PLK1, GSK3B, CSNK2, CSNK1, CDK1 and SRPK1, as well as other kinases that may control nSR100 levels and or activity.

nSR100 [4] = target: T1, nSR100 (Homo sapiens, UniProt A7MD48); experiment: Regulation by nSR100: microexon inclusion level (PSI) by RNA-Seq in human 293T cells overexpressing nSR100 (Table 1); type: cell-based; details: YES/NO
T1 construct: expressed in transfected cells; host or cells: 293T (human kidney cells), doxycycline-inducible nSR100 expression
T1 sequence (A7MD48 1-611): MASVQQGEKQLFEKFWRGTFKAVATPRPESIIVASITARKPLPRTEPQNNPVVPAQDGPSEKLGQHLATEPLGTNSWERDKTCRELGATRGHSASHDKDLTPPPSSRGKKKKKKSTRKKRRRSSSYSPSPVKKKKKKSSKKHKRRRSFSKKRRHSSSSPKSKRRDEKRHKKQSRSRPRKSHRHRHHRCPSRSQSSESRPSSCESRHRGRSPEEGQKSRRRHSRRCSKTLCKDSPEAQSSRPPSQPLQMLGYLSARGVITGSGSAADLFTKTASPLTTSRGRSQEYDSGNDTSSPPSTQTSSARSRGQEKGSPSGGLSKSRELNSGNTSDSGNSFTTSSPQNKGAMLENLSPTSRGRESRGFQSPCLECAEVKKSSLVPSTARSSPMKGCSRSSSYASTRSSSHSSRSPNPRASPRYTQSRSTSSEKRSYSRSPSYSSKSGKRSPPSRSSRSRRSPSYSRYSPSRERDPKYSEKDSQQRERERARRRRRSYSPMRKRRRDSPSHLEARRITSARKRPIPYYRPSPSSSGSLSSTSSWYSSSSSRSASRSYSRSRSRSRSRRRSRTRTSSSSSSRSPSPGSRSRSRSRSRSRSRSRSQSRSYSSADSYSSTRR
Excerpt: A) Percent of neural-regulated exons within each length class that is affected by nSR100 expression in human 293T kidney cells (absolute ΔPSI>15, light grey or absolute ΔPSI>25, dark grey). p-values correspond to two-sided proportion tests of affected vs. non-affected events. B) Average normalized density of nSR100 cross-linked sites in 200 nt windows encompassing neural-regulated exons of different length classes. FPB, Fragments Per Billion. […]
(§1) An RNA-Seq analysis pipeline was developed to detect and quantify all AS event classes involving all hypothetically possible splice junctions formed by the usage of annotated and unannotated splice sites, including those that demarcate microexons. […]
(§2) A multi-module analysis pipeline was developed that uses RNA-Seq, expressed sequence tag (EST) and cDNA data, as well as gene annotations and evolutionary conservation, to assemble libraries of exon-exon-junctions (EEJs) for subsequent read alignment to detect and quantify AS events in RNA-Seq data. […] Alt3 or Alt5 events were quantified based on the fraction of reads supporting the usage of each alternative splice site. Intron retention was analyzed as recently described (Braunschweig et al., 2014). […]

nSR100 [5] = target: T2, nSR100 (Mus musculus, UniProt Q8BKA3); experiment: Regulation by nSR100: microexon inclusion level (PSI) by RNA-Seq in mouse N2A cells depleted of nSR100 (Table 2); type: cell-based
T2 construct: host or cells: mouse N2A cells
T2 sequence (Q8BKA3 1-608): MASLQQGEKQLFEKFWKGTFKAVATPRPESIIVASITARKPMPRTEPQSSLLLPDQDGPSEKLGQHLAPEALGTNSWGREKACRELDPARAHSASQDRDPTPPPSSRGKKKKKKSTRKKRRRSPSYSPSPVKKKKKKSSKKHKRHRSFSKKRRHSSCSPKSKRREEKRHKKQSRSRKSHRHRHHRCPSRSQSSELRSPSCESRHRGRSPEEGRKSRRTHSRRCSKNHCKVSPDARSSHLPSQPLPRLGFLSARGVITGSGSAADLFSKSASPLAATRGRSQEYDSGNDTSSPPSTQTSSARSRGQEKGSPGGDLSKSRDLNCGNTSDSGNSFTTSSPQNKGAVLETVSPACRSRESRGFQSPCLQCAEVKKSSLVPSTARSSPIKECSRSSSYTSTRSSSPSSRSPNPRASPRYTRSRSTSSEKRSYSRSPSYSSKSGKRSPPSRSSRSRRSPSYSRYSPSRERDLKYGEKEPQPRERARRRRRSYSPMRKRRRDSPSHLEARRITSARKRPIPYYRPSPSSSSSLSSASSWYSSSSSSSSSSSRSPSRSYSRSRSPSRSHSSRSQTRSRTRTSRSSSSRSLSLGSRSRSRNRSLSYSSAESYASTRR
Excerpt: A-H) Percent of neural-regulated exons within each length class that is affected at 15<|ΔPSI|<25 and |ΔPSI|>25 by (A) RBFOX1 knockdown in human neural precursor cells; (B) MBNL1 and MBNL2 double knockdown in human HeLa cells; (C) ESRP1 knockdown in human PNT2 cells; (D) nSR100/Srrm4 knockdown in mouse N2A cells; (E) Ptbp1 knockdown in mouse N2A cells; (F) Ptbp2 knockout in mouse cortex (P1 stage); (G) Ptbp2 knockout in mouse embryonic brain (18.5 days post-conception); and (H) Rbfox1 knockout. p values correspond to two-sided proportion tests of regulated versus non-regulated events. I) Expression of nSR100 in different isolated brain cell types (Zhang et al., 2014). Error bars indicate SEM. […]
as §1
as §2, with “site.” for “site. Intron retention was analyzed as recently described (Braunschweig et al., 2014).”

Compound: [Cl-].[K+] [KCl]
number of alternative splicing events displaying changes ([1]; 30 minutes after KCl treatment): 222 | microexons with increased skipping, share of all microexons ([1]; 3 hours of KCl treatment): 14.7% | number of microexons with higher inclusion levels ([1]; 3 hours of KCl treatment): 7 | number of microexons with increased skipping (of 598 detected) ([1]; 3 hours of KCl treatment): 88 | number of alternative splicing events displaying changes ([1]; 3 hours of KCl treatment): 1,829 | decrease in nSR100 protein levels (nSR100 [2]; 30 minutes into KCl treatment, DIV11 cortical neurons): 2 fold | nSR100 mRNA levels (nSR100 [2]; thirty minutes after depolarization, qRT-PCR): remain steady

Compound: CC(C)C[C@@H](C=O)NC(=O)[C@H](CC(C)C)NC(=O)[C@H](CC(C)C)NC(=O)OCc1ccccc1 [MG132] (Cbz-Leu-Leu-Leu-aldehyde)
nSR100 protein levels (nSR100 [3]): increased levels of SRRM4; also recorded: significant increases in levels of nSR100

Compound: DTNB
Regulation by nSR100 (nSR100 [4]): YES (minimum threshold (PSI≥10) requirement for annotation as “YES”)

Regulation by nSR100 (nSR100 [5]; threshold change of PSI≥10): YES
Compound: Dtnb

Regulation by nSR100 (nSR100 [5]; YES/NO): YES
Compound: Sbf1
